Reference: patent US9540358B2, “Tricyclic compounds as anticancer agents” (ICAHN SCHOOL OF MEDICINE AT MOUNT SINAI, priority 2011, dated 2017)

Key:
Assay type in all cases: cell-based
[1] = tested on: H1650 lung cancer cells; experiment: Cell viability assay (MTT, IC50 determination); settings: MTT; for IC50: Homo sapiens, NCI-H1650, 48 hours after drug treatment; for IC50 (Cell Viability Data): 48 hours after drug treatment
Experimental: 89(22): p. […] H1650 lung cancer cells were plated at 150,000 cells per well in a 12 well plate. Twenty-four hours after plating, cells were treated as described with increasing concentrations of drug and control. Forty-eight hours after drug treatment, cells were treated with 100 μL of 3-(4,5-Dimethylthiazol-2-yl)-2,5-diphenyltetrazolium bromide (MTT) and incubated for 2 hours at 37 C. The MTT solution was subsequently replaced with 300 μL of n-propyl alcohol and re-aliquoted to a 96 well plates. Spectrophotometric analysis of each solution was performed using a 96 well plate reader at 600 nm in triplicate.

[2] = tested on: H292 cells; experiment: Colony formation (clonogenic) assay, H292; settings: 8 days
Experimental: (§1) Protocol for clonogenic assay follows Sangodkar et al. J Clin Invest 2012; 122:2637-51.
(§2) Cell culture and staining: For both A549luc and H292 cells, 500 cells were seeded into each well of a 6-well plate and allowed to attach for 24 hours before drug treatment. The following day, cells were treated with either the appropriate dose of drug or an equivalent volume of DMSO (two replicates were treated for each condition). For each condition, depleted media was replaced with fresh media containing the equivalent drug dose four days after initial treatment. Cells were harvested either 7 (A549luc) or 8 (H292) days after initial treatment. Briefly, media was aspirated from each well and the cells were washed twice with ice-cold PBS, then plates were allowed to dry at room temperature for 4 hours. Cells were fixed for one hour in a fixing solution consisting of 10% methanol and 10% glacial acetic acid in distilled water, then stained overnight in 1% (w/v) crystal violet dissolved in methanol. The next day, staining solution was aspirated from the wells and plates were washed gently with distilled water to remove excess stain before colony counting. Colonies were imaged on a ChemiDoc XRS+ (Bio-Rad) and images were exported as 8-bit TIFF files. Colonies were counted using the Colony Counter plugin in ImageJ, with colony size defined as between 4 and 400 square pixels, and minimum circularity set at 0.6. Duplicate wells were averaged to obtain a single value for each condition. Results (number of colonies) for A549luc cells are shown in Table 2 and results (number of colonies) for H292 cells are shown in Table 3: […]

[3] = tested on: A549luc cells; experiment: Colony formation (clonogenic) assay, A549luc; settings: 7 days
Experimental: as §1, §2

Structure (SMILES)	IC50 [1] [µM]	also measured
O=S(=O)(NCCNC1c2ccccc2CCc2ccccc21)c1ccc(Cl)cc1 [Example 55, 4-Chloro-N-(2-((10,11-dihydro-5H-dibenzo[a,d][7]annulen-5-yl)amino)ethyl)benzenesulfonamide]	~25	
O=S(=O)(NCCNC1c2ccccc2CCc2ccccc21)c1ccc(OC(F)(F)F)cc1 [Example 56, 4-Trifluoromethoxy-N-(2-((10,11-dihydro-5H-dibenzo[a,d][7]annulen-5-yl)amino)ethyl)benzenesulfonamide]	~25	
O=S(=O)(NCC(O)CN1c2ccccc2CCc2ccc(Cl)cc21)c1ccc(Cl)cc1 (stereo not shown) [Example 57, 4-Chloro-N-(3-(3-chloro-10,11-dihydro-5H-dibenzo[b,f]azepin-5-yl)-2-hydroxypropyl)benzenesulfonamide]	~10	
O=S(=O)(NCC(O)CN1c2ccccc2CCc2ccc(Cl)cc21)c1ccc(OC(F)(F)F)cc1 (stereo not shown) [Example 58, 4-Trifluoromethoxy-N-(3-(3-chloro-10,11-dihydro-5H-dibenzo[b,f]azepin-5-yl)-2-hydroxypropyl)benzenesulfonamide]	~5	
O=S(=O)(NCC(O)CN1c2ccccc2CCc2ccccc21)c1ccc(Cl)cc1 (stereo not shown) [Example 59, 4-Chloro-N-(3-(10,11-dihydro-5H-dibenzo[b,f]azepin-5-yl)-2-hydroxypropyl)benzenesulfonamide]	~25	
O=S(=O)(NCC(O)CN1c2ccccc2CCc2ccccc21)c1ccc(OC(F)(F)F)cc1 (stereo not shown) [Example 60, 4-Trifluoromethoxy-N-(3-(10,11-dihydro-5H-dibenzo[b,f]azepin-5-yl)-2-hydroxypropyl)benzenesulfonamide]	~15	number of colonies ([2]; 5 μM): 107; number of colonies ([2]; 7.5 μM): 105; number of colonies ([2]; 10 μM): 42; number of colonies ([3]; 5 μM): 126.5; number of colonies ([3]; 7.5 μM): 118.5; number of colonies ([3]; 10 μM): 56
O=S(=O)(NCCCN1c2ccccc2CCc2ccc(Cl)cc21)c1cc(Cl)c(Cl)s1 [Example 61, 4,5-dichloro-N-(3-(3-chloro-10,11-dihydro-5H-dibenzo[b,f]azepin-5-yl)propyl)thiophene-2-sulfonamide]	~20	
O=C(CNS(=O)(=O)c1ccc(OC(F)(F)F)cc1)CN1c2ccccc2CCc2ccccc21 [Example 64, N-(3-(10,11-dihydro-5H-dibenzo[b,f]azepin-5-yl)-2-oxopropyl)-4-(trifluoromethoxy)benzenesulfonamide]	~35	
N#CC(CNS(=O)(=O)c1ccc(OC(F)(F)F)cc1)CN1c2ccccc2CCc2ccccc21 (stereo not shown) [Example 65, N-(2-cyano-3-(10,11-dihydro-5H-dibenzo[b,f]azepin-5-yl)propyl)-4-(trifluoromethoxy)benzenesulfonamide]	~15	
CC(CNS(=O)(=O)c1ccc(OC(F)(F)F)cc1)CN1c2ccccc2CCc2ccccc21 (stereo not shown) [Example 67, N-(3-(10,11-dihydro-5H-dibenzo[b,f]azepin-5-yl)-2-methylpropyl)-4-(trifluoromethoxy)benzenesulfonamide]	~20	
CC(CNS(=O)(=O)c1ccc(Cl)cc1)CN1c2ccccc2CCc2ccccc21 (stereo not shown) [Example 68, 4-Chloro-N-(3-(10,11-dihydro-5H-dibenzo[b,f]azepin-5-yl)-2-methylpropyl)benzenesulfonamide]	~20	
O=S(=O)(NCCCN1c2ccccc2CCc2cccc(Cl)c21)c1ccc(OC(F)(F)F)cc1 [Example 69, N-(3-(4-chloro-10,11-dihydro-5H-dibenzo[b,f]azepin-5-yl)propyl)-4-(trifluoromethoxy)benzenesulfonamide]	~20	
O=S(=O)(NC1CCCC(N2c3ccccc3CCc3ccccc32)C1)c1ccc(OC(F)(F)F)cc1 (stereo not shown) [Example 73, N-(3-(10,11-dihydro-5H-dibenzo[b,f]azepin-5-yl)cyclohexyl)-4-(trifluoromethoxy)benzenesulfonamide]		number of colonies ([2]; 5 μM): 40.5; number of colonies ([2]; 7.5 μM): 16.5; number of colonies ([2]; 10 μM): 7; number of colonies ([3]; 5 μM): 2; number of colonies ([3]; 7.5 μM): 0; number of colonies ([3]; 10 μM): 0
O=S(=O)(NC1CCC(N2c3ccccc3CCc3ccccc32)C1)c1ccc(OC(F)(F)F)cc1 (stereo not shown) [Example 76, N-(3-(10,11-dihydro-5H-dibenzo[b,f]azepin-5-yl)cyclopentyl)-4-(trifluoromethoxy)benzenesulfonamide]	20	
O=S(=O)(NC1CCCC(=C2c3ccccc3CCc3ccccc32)C1)c1ccc(OC(F)(F)F)cc1 (stereo not shown) [Example 77, N-(3-(10,11-dihydro-5H-dibenzo[a,d][7]annulen-5-ylidene)cyclohexyl)-4-(trifluoromethoxy)benzenesulfonamide]	15	
O=S(=O)(NCCCN1c2ccccc2CCc2ccccc21)c1cnc(Cl)c(Br)c1 [Example 81, 5-bromo-6-chloro-N-(3-(10,11-dihydro-5H-dibenzo[V]azepin-5-yl)propyl)pyridine-3-sulfonamide]		IC50 (Cell Viability Data) [1]: INACTIVE
CC(=O)Nc1nc(C)c(S(=O)(=O)NCCCN2c3ccccc3CCc3ccccc32)s1 [Example 82, N-(5-(N-(3-(10,11-dihydro-5H-dibenzo[b,f]azepin-5-yl)propyl)sulfamoyl)-4-methylthiazol-2-yl)acetamide]		IC50 (Cell Viability Data) [1]: INACTIVE
COC(=O)NCCN1c2ccccc2Sc2ccc(Cl)cc21 [Example 83]		IC50 (Cell Viability Data) [1]: INACTIVE
O=S(=O)(NCCCN1c2ccccc2CCc2ccc(Cl)cc21)c1ccccc1OC(F)(F)F [Example 86]		IC50 (Cell Viability Data) [1]: INACTIVE
CC(=O)Nc1ccc(S(=O)(=O)NCCCN2c3ccccc3CCc3ccc(Cl)cc32)cc1 [Example 88]	~20	

Continued, in another order:

IC50 [1] [µM]	Structure (SMILES)	also measured
~15	O=S(=O)(NCCCN1c2ccccc2CCc2ccc(Cl)cc21)c1cccc(OC(F)(F)F)c1 [Example 54, N-(3-(3-chloro-10,11-dihydro-5H-dibenzo[b,f]azepin-5-yl)propyl)-3-(trifluoromethoxy)benzenesulfonamide]	
~25	O=S(=O)(NCCCN1c2ccccc2CCc2ccc(Cl)cc21)c1cc(Cl)sc1Cl [Example 62, 2,5-dichloro-N-(3-(3-chloro-10,11-dihydro-5H-dibenzo[b,f]azepin-5-yl)propyl)thiophene-3-sulfonamide]	
~20	O=S(=O)(NCCCN1c2ccccc2CCc2cccc(Cl)c21)c1ccc(Cl)cc1 [Example 70, 4-Chloro-N-(3-(4-chloro-10,11-dihydro-5H-dibenzo[b,f]azepin-5-yl)propyl)benzenesulfonamide]	
25	N#Cc1ccc(S(=O)(=O)NCCC=C2c3ccccc3CCc3ccccc32)cc1 [Example 71, N-(3-(10,11-dihydro-5H-dibenzo[a,d][7]annulen-5-ylidene)propyl)-4-cyanobenzenesulfonamide]	
20	O=S(=O)(NCCC=C1c2ccccc2CCc2ccccc21)c1ccc(F)cc1 [Example 72, N-(3-(10,11-dihydro-5H-dibenzo[a,d][7]annulen-5-ylidene)propyl)-4-fluorobenzenesulfonamide]	
~15	O=S(=O)(NC[C@@H](O)CN1c2ccccc2CCc2ccccc21)c1ccc(OC(F)(F)F)cc1 [Example 74, (S)—N-(3-(10,11-dihydro-5H-dibenzo[b,f]azepin-5-yl)-2-hydroxypropyl)-4-(trifluoromethoxy)benzenesulfonamide]	number of colonies ([2]; 5 μM): 85.5; number of colonies ([2]; 7.5 μM): 65.5; number of colonies ([2]; 10 μM): 46.5; number of colonies ([3]; 5 μM): 135.5; number of colonies ([3]; 7.5 μM): 118.5; number of colonies ([3]; 10 μM): 96
15	O=S(=O)(NC1CCCC(=C2c3ccccc3CCc3ccccc32)C1)c1ccc(Cl)cc1 (stereo not shown) [Example 78, N-(3-(10,11-dihydro-5H-dibenzo[a,d][7]annulen-5-ylidene)cyclohexyl)-4-chlorobenzenesulfonamide]	
~20	O=S(=O)(NC1CCC(=C2c3ccccc3CCc3ccccc32)CC1)c1ccc(OC(F)(F)F)cc1 (stereo not shown) [Example 79, N-(4-(10,11-dihydro-5H-dibenzo[a,d][7]annulen-5-ylidene)cyclohexyl)-4-(trifluoromethoxy)benzenesulfonamide]	
~20	O=S(=O)(NC1CCC(=C2c3ccccc3CCc3ccccc32)CC1)c1ccc(Cl)cc1 (stereo not shown) [Example 80, N-(4-(10,11-dihydro-5H-dibenzo[a,d][7]annulen-5-ylidene)cyclohexyl)-4-chlorobenzenesulfonamide]	
~25	O=S(=O)(NCC(O)CN1c2ccccc2Sc2ccccc21)c1ccc(OC(F)(F)F)cc1 (stereo not shown) [Example 84]	
~15	O=S(=O)(NCC(O)CN1c2ccccc2Sc2ccccc21)c1ccc(Cl)cc1 (stereo not shown) [Example 85]	
~15	CS(=O)(=O)Nc1ccc2c(c1)N(CCCNS(=O)(=O)c1ccc(OC(F)(F)F)cc1)c1ccccc1CC2 [Example 87]	
